From patent US20260022142A1, “MACROCYCLIC IMMUNOMODULATORS” (Bristol-Myers Squibb Company, priority 2022, published 2026) come the findings set out here.

Bridge positions count the residues as written; N and C are the ends. Square brackets hold non-standard residues; d marks the D form. Peptide text beside a SMILES is read from it. * marks the point of attachment. Bip = N[C@@H](Cc1ccc(-c2ccccc2)cc1)C(=O)O; Phe(3-Me) = Cc1cccc(C[C@H](N)C(=O)O)c1; Cha = N[C@@H](CC1CCCCC1)C(=O)O; Cit = NC(=O)NCCC[C@H](N)C(=O)O; Carboxymethyl = O=C(O)C*; Orn = NCCC[C@H](N)C(=O)O; Aun = NCCCCCCCCCCC(=O)O; Dab = NCC[C@H](N)C(=O)O; Dap = NC[C@H](N)C(=O)O

In this test the target is T1, PD-1/PD-L1 interaction (PE-labeled human PD-L1-Ig binding to Jurkat cell line over-expressing human PD-1) (Homo sapiens, UniProt Q15116).
T1 construct: expressed in transfected cells; host or cells: Jurkat
T1 sequence (Q15116 25-288): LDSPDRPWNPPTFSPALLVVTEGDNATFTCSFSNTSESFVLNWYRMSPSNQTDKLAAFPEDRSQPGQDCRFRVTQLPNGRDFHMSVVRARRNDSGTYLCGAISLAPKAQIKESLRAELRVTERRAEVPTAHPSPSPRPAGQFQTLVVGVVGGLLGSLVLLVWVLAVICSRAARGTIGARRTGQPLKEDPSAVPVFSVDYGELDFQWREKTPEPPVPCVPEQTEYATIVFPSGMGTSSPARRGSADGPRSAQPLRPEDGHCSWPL
Put plainly: Jurkat-PD-1 Cell Binding High-Content Screening Assay (CBA). The format is cell-based. The following applies: Jurkat cell line over-expressing human PD-1; PE-labeled PD-L1-Ig 20 nM final; read-out: Jurkat hPD1-PDL1 IC50. Summed up: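 Binding of fluorescent PD-L1-Ig (phycoerythrin on Ig tag, 20 nM final, 1 h) measured by high-content imaging of fixed, Hoechst-counterstained Jurkat-hPD-1 cells. Compound added 2 h at 37° C beforehand, in DMEM with 10% fetal calf serum.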
One may read the IC50 as the midpoint of a concentration-inhibition curve. As for `Cc1cccc(C[C@@H]2NC(=O)[C@H](CC(=O)O)NC(=O)[C@H](Cc3ccc(OCC(=O)O)cc3)NC(=O)[C@H](Cc3ccc(OCC(=O)O)cc3)NC(=O)CSC[C@@H](C(=O)NCC(=O)N[C@@H](CCN)C(=O)NCC(=O)NCCCCCCCCCCC(=O)O)NC(=O)[C@H](CO)NC(=O)[C@H](C(C)C)NC(=O)[C@H](CC3CCCCC3)NC(=O)[C@H](CCN)NC(=O)[C@@H](CC(C)C)NC(=O)[C@H](CCCN)NC(=O)[C@H](C(C)C)NC(=O)[C@H](Cc3ccc(-c4ccccc4)cc3)NC(=O)[C@H](CC(C)C)NC2=O)c1` [Compound 1050] ({CH2CO}-Y(Carboxymethyl)Y(Carboxymethyl)D[Phe(3-Me)]L[Bip]V[Orn][dL][Dab][Cha]VSCG[Dab]G[Aun]-OH; thioether N-14), the IC50 amounted to 20.9 nM.

With `Cc1cccc(C[C@@H]2NC(=O)[C@H](CC(=O)O)NC(=O)[C@H](Cc3ccc(OCC(=O)O)cc3)NC(=O)[C@H](CN)NC(=O)CSC[C@@H](C(=O)N[C@@H](C)C(=O)N[C@@H](CCN)C(=O)NCC(=O)NCCCCCCCCCCC(=O)O)NC(=O)[C@H]([C@@H](C)O)NC(=O)[C@H](C(C)C)NC(=O)[C@H](CC3CCCCC3)NC(=O)[C@H](CCN)NC(=O)[C@@H](CC(C)C)NC(=O)[C@H](CCCN)NC(=O)[C@H](CCCNC(N)=O)NC(=O)[C@H](Cc3ccc(-c4ccccc4)cc3)NC(=O)[C@H](C(C)C)NC2=O)c1` [Compound 1051] ({CH2CO}-[Dap]Y(Carboxymethyl)D[Phe(3-Me)]V[Bip][Cit][Orn][dL][Dab][Cha]VTCA[Dab]G[Aun]-OH; thioether N-14), the IC50 was 12.3 nM.

For the compound `Cc1cccc(C[C@@H]2NC(=O)[C@H](CC(=O)O)NC(=O)[C@H](Cc3ccc(OCC(=O)O)cc3)NC(=O)[C@H](CN)NC(=O)CSC[C@@H](C(=O)N[C@@H](C)C(=O)N[C@@H](CN)C(=O)NCC(=O)NCCCCCCCCCCC(=O)O)NC(=O)[C@H]([C@@H](C)O)NC(=O)[C@H](C(C)C)NC(=O)[C@H](CC3CCCCC3)NC(=O)[C@H](CCN)NC(=O)[C@@H](CC(C)C)NC(=O)[C@H](CCCN)NC(=O)[C@H](CCCNC(N)=O)NC(=O)[C@H](Cc3ccc(-c4ccccc4)cc3)NC(=O)[C@H](C(C)C)NC2=O)c1` [Compound 1053] ({CH2CO}-[Dap]Y(Carboxymethyl)D[Phe(3-Me)]V[Bip][Cit][Orn][dL][Dab][Cha]VTCA[Dap]G[Aun]-OH; thioether N-14), the IC50 turned out to be 8.9 nM.

As for `Cc1cccc(C[C@@H]2NC(=O)[C@H](CC(=O)O)NC(=O)[C@H](Cc3ccc(OCC(=O)O)cc3)NC(=O)[C@H](Cc3ccc(OCC(=O)O)cc3)NC(=O)CSC[C@@H](C(=O)NCC(=O)N[C@@H](CCN)C(=O)NCCCCCCCCCCC(=O)O)NC(=O)[C@H](CO)NC(=O)[C@H](C(C)C)NC(=O)[C@H](CC3CCCCC3)NC(=O)[C@H](CCN)NC(=O)[C@@H](CC(C)C)NC(=O)[C@H](CCCN)NC(=O)[C@H](C(C)C)NC(=O)[C@H](Cc3ccc(-c4ccccc4)cc3)NC(=O)[C@H](CC(C)C)NC2=O)c1` [Compound 1054] ({CH2CO}-Y(Carboxymethyl)Y(Carboxymethyl)D[Phe(3-Me)]L[Bip]V[Orn][dL][Dab][Cha]VSCG[Dab][Aun]-OH; thioether N-14), the IC50 came to 31.3 nM.

For `Cc1cccc(C[C@@H]2NC(=O)[C@H](CC(=O)O)NC(=O)[C@H](Cc3ccc(OCC(=O)O)cc3)NC(=O)[C@H](CN)NC(=O)CSC[C@@H](C(=O)N[C@@H](C)C(=O)N[C@@H](CN)C(=O)NCCCCCCCCCCC(=O)O)NC(=O)[C@H]([C@@H](C)O)NC(=O)[C@H](C(C)C)NC(=O)[C@H](CC3CCCCC3)NC(=O)[C@H](CCN)NC(=O)[C@@H](CC(C)C)NC(=O)[C@H](CCCN)NC(=O)[C@H](CCCNC(N)=O)NC(=O)[C@H](Cc3ccc(-c4ccccc4)cc3)NC(=O)[C@H](C(C)C)NC2=O)c1` [Compound 1057] ({CH2CO}-[Dap]Y(Carboxymethyl)D[Phe(3-Me)]V[Bip][Cit][Orn][dL][Dab][Cha]VTCA[Dap][Aun]-OH; thioether N-14), the IC50 came out at 15.9 nM.

Consider `Cc1cccc(C[C@@H]2NC(=O)[C@H](CC(=O)O)NC(=O)[C@H](Cc3ccc(OCC(=O)O)cc3)NC(=O)[C@H](Cc3ccc(OCC(=O)O)cc3)NC(=O)CSC[C@@H](C(=O)N[C@@H](CCCCN)C(=O)NCCCCCCCCCCC(=O)O)NC(=O)[C@H](CO)NC(=O)[C@H](C(C)C)NC(=O)[C@H](CC3CCCCC3)NC(=O)[C@H](CCN)NC(=O)[C@@H](CC(C)C)NC(=O)[C@H](CCCN)NC(=O)[C@H](C(C)C)NC(=O)[C@H](Cc3ccc(-c4ccccc4)cc3)NC(=O)[C@H](CC(C)C)NC2=O)c1` [Compound 1058] ({CH2CO}-Y(Carboxymethyl)Y(Carboxymethyl)D[Phe(3-Me)]L[Bip]V[Orn][dL][Dab][Cha]VSCK[Aun]-OH; thioether N-14), for which the IC50 worked out at 57.2 nM.

As for `Cc1cccc(C[C@@H]2NC(=O)[C@H](CC(=O)O)NC(=O)[C@H](Cc3ccc(OCC(=O)O)cc3)NC(=O)[C@H](Cc3ccc(OCC(=O)O)cc3)NC(=O)CSC[C@@H](C(=O)N[C@@H](CCCN)C(=O)NCCCCCCCCCCC(=O)O)NC(=O)[C@H](CO)NC(=O)[C@H](C(C)C)NC(=O)[C@H](CC3CCCCC3)NC(=O)[C@H](CCN)NC(=O)[C@@H](CC(C)C)NC(=O)[C@H](CCCN)NC(=O)[C@H](C(C)C)NC(=O)[C@H](Cc3ccc(-c4ccccc4)cc3)NC(=O)[C@H](CC(C)C)NC2=O)c1` [Compound 1059] ({CH2CO}-Y(Carboxymethyl)Y(Carboxymethyl)D[Phe(3-Me)]L[Bip]V[Orn][dL][Dab][Cha]VSC[Orn][Aun]-OH; thioether N-14), the IC50 is 48.6 nM.

For `Cc1cccc(C[C@@H]2NC(=O)[C@H](CC(=O)O)NC(=O)[C@H](Cc3ccc(OCC(=O)O)cc3)NC(=O)[C@H](Cc3ccc(OCC(=O)O)cc3)NC(=O)CSC[C@@H](C(=O)N[C@@H](CCN)C(=O)NCCCCCCCCCCC(=O)O)NC(=O)[C@H](CO)NC(=O)[C@H](C(C)C)NC(=O)[C@H](CC3CCCCC3)NC(=O)[C@H](CCN)NC(=O)[C@@H](CC(C)C)NC(=O)[C@H](CCCN)NC(=O)[C@H](C(C)C)NC(=O)[C@H](Cc3ccc(-c4ccccc4)cc3)NC(=O)[C@H](CC(C)C)NC2=O)c1` [Compound 1060] ({CH2CO}-Y(Carboxymethyl)Y(Carboxymethyl)D[Phe(3-Me)]L[Bip]V[Orn][dL][Dab][Cha]VSC[Dab][Aun]-OH; thioether N-14), the IC50 was determined as 89.8 nM.

For the compound `Cc1cccc(C[C@@H]2NC(=O)[C@H](CC(=O)O)NC(=O)[C@H](Cc3ccc(OCC(=O)O)cc3)NC(=O)[C@H](Cc3ccc(OCC(=O)O)cc3)NC(=O)CSC[C@@H](C(=O)N[C@@H](CN)C(=O)NCCCCCCCCCCC(=O)O)NC(=O)[C@H](CO)NC(=O)[C@H](C(C)C)NC(=O)[C@H](CC3CCCCC3)NC(=O)[C@H](CCN)NC(=O)[C@@H](CC(C)C)NC(=O)[C@H](CCCN)NC(=O)[C@H](C(C)C)NC(=O)[C@H](Cc3ccc(-c4ccccc4)cc3)NC(=O)[C@H](CC(C)C)NC2=O)c1` [Compound 1061] ({CH2CO}-Y(Carboxymethyl)Y(Carboxymethyl)D[Phe(3-Me)]L[Bip]V[Orn][dL][Dab][Cha]VSC[Dap][Aun]-OH; thioether N-14), the IC50 turned out to be 56.2 nM.

Turning to `Cc1cccc(C[C@@H]2NC(=O)[C@H](CC(=O)O)NC(=O)[C@H](Cc3ccc(OCC(=O)O)cc3)NC(=O)[C@H](CN)NC(=O)CSC[C@@H](C(=O)N[C@@H](CCN)C(=O)NCCCCCCCCCCC(=O)O)NC(=O)[C@H]([C@@H](C)O)NC(=O)[C@H](C(C)C)NC(=O)[C@H](CC3CCCCC3)NC(=O)[C@H](CCN)NC(=O)[C@@H](CC(C)C)NC(=O)[C@H](CCCN)NC(=O)[C@H](CCCNC(N)=O)NC(=O)[C@H](Cc3ccc(-c4ccccc4)cc3)NC(=O)[C@H](C(C)C)NC2=O)c1` [Compound 1064] ({CH2CO}-[Dap]Y(Carboxymethyl)D[Phe(3-Me)]V[Bip][Cit][Orn][dL][Dab][Cha]VTC[Dab][Aun]-OH; thioether N-14), the IC50 was determined as 16.3 nM.

For `Cc1cccc(C[C@@H]2NC(=O)[C@H](CC(=O)O)NC(=O)[C@H](Cc3ccc(OCC(=O)O)cc3)NC(=O)[C@H](CN)NC(=O)CSC[C@@H](C(=O)N[C@@H](CN)C(=O)NCCCCCCCCCCC(=O)O)NC(=O)[C@H]([C@@H](C)O)NC(=O)[C@H](C(C)C)NC(=O)[C@H](CC3CCCCC3)NC(=O)[C@H](CCN)NC(=O)[C@@H](CC(C)C)NC(=O)[C@H](CCCN)NC(=O)[C@H](CCCNC(N)=O)NC(=O)[C@H](Cc3ccc(-c4ccccc4)cc3)NC(=O)[C@H](C(C)C)NC2=O)c1` [Compound 1065] ({CH2CO}-[Dap]Y(Carboxymethyl)D[Phe(3-Me)]V[Bip][Cit][Orn][dL][Dab][Cha]VTC[Dap][Aun]-OH; thioether N-14), the IC50 is 13.5 nM.

In the case of `Cc1cccc(C[C@@H]2NC(=O)[C@H](CC(=O)O)NC(=O)[C@H](Cc3ccc(OCC(=O)O)cc3)NC(=O)[C@H](CN)NC(=O)CSC[C@@H](C(=O)N[C@@H](C)C(=O)N[C@@H](CCCCN)C(=O)NCC(=O)NCCCCCCCCCCC(=O)O)NC(=O)[C@H]([C@@H](C)O)NC(=O)[C@H](C(C)C)NC(=O)[C@H](CC3CCCCC3)NC(=O)[C@H](CCN)NC(=O)[C@@H](CC(C)C)NC(=O)[C@H](CCCN)NC(=O)[C@H](CCCNC(N)=O)NC(=O)[C@H](Cc3ccc(-c4ccccc4)cc3)NC(=O)[C@H](C(C)C)NC2=O)c1` [Compound 1066] ({CH2CO}-[Dap]Y(Carboxymethyl)D[Phe(3-Me)]V[Bip][Cit][Orn][dL][Dab][Cha]VTCAKG[Aun]-OH; thioether N-14), the IC50 is 13.9 nM.

Consider `Cc1cccc(C[C@@H]2NC(=O)[C@H](CC(=O)O)NC(=O)[C@H](Cc3ccc(OCC(=O)O)cc3)NC(=O)[C@H](Cc3ccc(OCC(=O)O)cc3)NC(=O)CSC[C@@H](C(=O)NCC(=O)N[C@@H](CCCN)C(=O)NCC(=O)NCCCCCCCCCCC(=O)O)NC(=O)[C@H](CO)NC(=O)[C@H](C(C)C)NC(=O)[C@H](CC3CCCCC3)NC(=O)[C@H](CCN)NC(=O)[C@@H](CC(C)C)NC(=O)[C@H](CCCN)NC(=O)[C@H](C(C)C)NC(=O)[C@H](Cc3ccc(-c4ccccc4)cc3)NC(=O)[C@H](CC(C)C)NC2=O)c1` [Compound 1067] ({CH2CO}-Y(Carboxymethyl)Y(Carboxymethyl)D[Phe(3-Me)]L[Bip]V[Orn][dL][Dab][Cha]VSCG[Orn]G[Aun]-OH; thioether N-14), for which the IC50 was 28.5 nM.
